# Laboratory results reported in patent publication US10173969B2, “Production of aniline via anthranilate” (Covestro Deutschland AG, priority 2014, dated 2019).
# Key:
# [1] = Kinetics of thermal decarboxylation in aqueous buffer solution without catalyst; format: physicochemical; settings: for k (rate coefficient of decarboxylation) / n (order of reaction of decarboxylation): buffer solution, no catalyst
# Source text: (§1) In this experiment, the kinetics of the thermal decarboxylation of step b) of the method according to the invention was studied. […] In this case it was possible to decarboxylate anthranilate ion to aniline (ANL). AA, or o-aminobenzoate, respectively was either provided biologically by a recombinant microbial host as described in Example 1, or it was provided chemically, e.g. it was commercially obtained, e.g. from Sigma Aldrich, catalog no. A89855.
# (§2) A buffer solution containing (NH4)2SO4 (20 g/L), Na2HPO4 (1 g/L) and KH2PO4 (1 g/L) in distilled water was prepared. Then AA 10 wt % was suspended in this solution. NH4OH solution (28-30% NH3) was added dropwise into this suspension until a clear yellow solution was formed. The pH of this ammonium anthranilate (NH4AA) solution was around 7. The ammonium anthranilate (3 wt %) solution was also prepared using this method.
# 80 mL of each of the above solutions was transferred into an autoclave 160 mL and heated to 160° C. or 180° C. and samples were taken at different time intervals to analyse the rate of aniline (ANL) formation.
# Decarboxylation of AA 0.5 wt % and NH4AA 3 wt % in aqueous buffer solution was performed at 160° C. without using any catalyst. […] The kinetic model was established using the general reaction rate formula as below and considering the experimental data to calculate the optimized k and n parameters which are the rate coefficient and the order of reaction, respectively.
# The kinetics of NH4AA 10 wt % decarboxylation at 160° C. and 180° C. was also studied using experimental data and a simulating model.
# [2] = Solubility of ammonium anthranilate in buffer solution; format: physicochemical; settings: AA buffer solution with NH4OH added
# Source text: as §1, §2
# [3] = reaction temperature 160 °C, listed as NH4AA 10% in buffer solution
Structure (SMILES),"rate coefficient (k) relative to that of NH4AA 3 wt % ([1]; 160 °C, decarboxylation in water) [times]",k (rate coefficient of decarboxylation) ([1]; reaction temperature 160 °C) [h⁻¹],n (order of reaction of decarboxylation) ([1]; reaction temperature 160 °C),rate coefficient at 180 °C relative to that at 160 °C ([1]; NH4AA 10 wt %) [times],"k (rate coefficient of decarboxylation) [1, 3] [h⁻¹]","n (order of reaction of decarboxylation) [1, 3]",k (rate coefficient of decarboxylation) ([1]; reaction temperature 180 °C) [h⁻¹],n (order of reaction of decarboxylation) ([1]; reaction temperature 180 °C),solubility [2]
"Nc1ccccc1C(=O)O [AA 0.5% in buffer solution, anthranilic acid]",6.8,0.0519,0.9207,,,,,,
"N.Nc1ccccc1C(=O)O [NH4AA 3% in buffer solution, ammonium anthranilate]",,0.00755,0.8706,36,0.000713,1.2758,0.026,0.9793,
N.Nc1ccccc1C(=O)O [ammonium anthranilate],,,,,,,,,up to 10%
